How the values were obtained:
[1] = MTT viability assay, 72 h; assay type: cell-based; details: human, HeLa-CD4-LTR-LacZ cells, mean ± SD, n = 2 to 3
Protocol: The assay was performed with MTT [3-(4,5-dimethyl-2-thiazolyl)-2,5-diphenyl-2H-tetrazolium bromide] as described in reference.

[2] = test system: Tat transactivation activity; experiment: Transactivation assay (luciferase) in HeLa-CD4-LTR-Luc cells transfected with FLAG-Tat; assay type: cell-based, HIV-1; details: 25 nM, 48 h
Protocol: Supplementary file : FIG S9 Tat-TAR interaction blocked by dCA in HeLa-CD4-LTR-Luc cells. (A) Transactivation assays. HeLa-CD4-LTR-Luc cells, transfected with Tat or Tat Mut, were incubated with the indicated compounds (dCA and raltegravir [“Ralt.”], 25 nM) or DMSO. Forty-eight hours later, cells were lysed and cross-linked, and luciferase activity relative to the Bradford assay or ChIP TAR RNA (Fig. 6D) was determined. Data are the mean ± SD from n = 3 independent experiments. (B) Western blot of the amount of FLAG-Tat bound to FLAG-tagged beads after elution of the samples for ChIP TAR RNA, as control input. The input of FLAG-Tat and GAPDH as a loading control. Data are representative of n = 3 independent experiments. Statistical significance was determined using one-way ANOVA with post hoc Tukey’s test, comparing DMSO to the other conditions. ***, P < 0.0001. Download FIG S9, PDF file, 0.2 MB.
Chromatin was immunoprecipitated with an anti-FLAG antibody, and qRT-PCR was performed to detect the presence of chromatin-coding TAR (Fig. 6D).
Chromatin immunoprecipitation assay (CHIP). HeLa-CD4-LTR-Luc cells (4×10^6) were transfected with different constructs (PGK-FLAG Tat and PGK-FLAG Tat Mut). […] The relative proportions of co-immunoprecipitated DNA were determined on the basis of the threshold cycle for qRT-PCR. […]

Hexim-1 = biological target: T1, Hexim-1 (Homo sapiens, UniProt O94992); experiment: Confocal immunofluorescence of Hexim-1 subcellular localization; assay type: cell-based; details: HeLa-CD4-LTR-Luc cells
T1 construct: endogenous in cells; host or cells: HeLa-CD4-LTR-LacZ (RNA immunoprecipitation); HeLa-CD4-LTR-Luc (immunofluorescence)
Description: (A) Sequence of the basic domains of HIV Tat HXB3, HIV Rev Bru and intracellular Hexim-1. […] Shown is confocal microscopy analysis of the subcellular localization of transfected FLAG-Tat or FLAG-Rev in the presence of DMSO or dCA in HeLa-CD4-LTR-Luc cells. Proteins were recognized with anti-FLAG and Alexa Fluor 568-tagged anti-IgG. Magnification 60×. Data are representative of n = 2 independent experiments. (C) Quantification of the nucleolar fluorescence of panel B using ImageJ. Data are the mean ± SEM from 3 to 4 different cells. […] HeLa-CD4-LTR-LacZ cells were infected with strain NL4-3 for 24 hours. The next day, compounds (dCA, 10 nM; KPT, 400 nM; and SCM, 10 nM) were added for 24 hours. Total, nuclear, and cytoplasmic mRNAs were extracted, and viral messages were determined by qRT-PCR. GAPDH was used for normalization. Data are the mean ± SD from n = 5 independent experiments. […] (G) Quantification of nuclear fluorescence of panel F using ImageJ. […] Statistical significance was determined using one-way ANOVA with post hoc Tukey’s test. ns, not significant; ***, P < 0.0001; **, P < 0.001.
Hexim-1 directly binds to cyclin T1 and is responsible for the inactivation of the kinase activity of P-TEFb ([35], [36]). […] Intracellular Hexim-1 was immunoprecipitated, and 7SK snRNP bound to Hexim-1 was extracted, reverse transcribed, and quantified by qRT-PCR as previously described ([42]) (Fig. 3E). […]

T1 sequence (O94992 whole entry): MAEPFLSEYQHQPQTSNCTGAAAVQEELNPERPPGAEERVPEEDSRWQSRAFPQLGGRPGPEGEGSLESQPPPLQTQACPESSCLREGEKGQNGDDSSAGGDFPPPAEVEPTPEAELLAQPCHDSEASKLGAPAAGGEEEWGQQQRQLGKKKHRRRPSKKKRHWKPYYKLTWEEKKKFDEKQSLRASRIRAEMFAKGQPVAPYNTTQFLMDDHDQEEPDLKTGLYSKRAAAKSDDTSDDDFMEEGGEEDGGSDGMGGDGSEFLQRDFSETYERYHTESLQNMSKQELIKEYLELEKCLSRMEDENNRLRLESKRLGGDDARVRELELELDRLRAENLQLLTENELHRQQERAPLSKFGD

## CN(C)C1CC23CCC4(O2)C(=CCC2(C)C(c5ccc6ccncc6c5)=CCC24)C=C3C(O)C1O (stereo not drawn) [dCA, didehydro-cortistatin A]
[1]
  CC50 at 72 h: 20 µM
[2]
  Tat transactivation activity (luciferase), transfected FLAG-Tat: inhibited Tat transactivation activity
Hexim-1
  Hexim-1 nuclear localization: did not have any effect
